Among the data in ChEMBL document CHEMBL1123972, “Drug-induced modifications of the immune response. 12. 4,5-Dihydro-4-oxo-2-(substituted amino)-3-furancarboxylic acids and derivatives as novel antiallergic agents” (1988) are inhibition in vivo, Activity and Inhibition values, retold here.

Each structure is given as a SMILES string. Counter-ions that a name gives are not always drawn.

What all share (format): functional
In assay [1] the test system is Rattus norvegicus. The experiment in a line: Inhibition of histamine -induced dermal vascular permeability in rats at a intraperitoneal dose of 100 mg/kg 1 hr prior to challenge. Particulars: ip.
The subject of assay [2] is Rattus norvegicus. The experiment in a line: Inhibition of serotonin -induced dermal vascular permeability in rats at a intraperitoneal dose of 100 mg/kg 1 hr prior to challenge. As to conditions: ip.
The subject of assay [3] is Rattus norvegicus. The experiment in a line: Inhibition of bradykinin-induced dermal vascular permeability in rats at a intraperitoneal dose of 100 mg/kg 1 hr prior to challenge. Particulars: ip.
In assay [4] the test system is Rattus norvegicus. The experiment in a line: Antiallergic activity of edema in the active anaphylaxis assay at a intraperitoneal dose of 100 mg/kg in rats. Details: unit not given here.
Assay [5] deals with Rattus norvegicus. The experiment in a line: Antiallergic activity evaluated as percent inhibition at intraperitoneal dose of 100 mg/kg in rats. Particulars: for inhibition in vivo at 100 mg/kg: Rattus norvegicus, ip.
Assay [6] concerns Rattus norvegicus. In words: Inhibition of histamine -induced dermal vascular permeability in rats at a peroral dose of 100 mg/kg 1 hr prior to challenge. Particulars: route oral.
In assay [7] the test system is Rattus norvegicus. In words: Inhibition of serotonin -induced dermal vascular permeability in rats at a peroral dose of 100 mg/kg 1 hr prior to challenge. Particulars: route oral.
Assay [8] has as its system Rattus norvegicus. The experiment in a line: Inhibition of bradykinin-induced dermal vascular permeability in rats at a peroral dose of 100 mg/kg 1 hr prior to challenge. Particulars: route oral.
Assay [9] relates to Rattus norvegicus. In words: Antiallergic activity of edema in the active anaphylaxis assay at a peroral dose of 100 mg/kg in rats. Particulars: route oral.
In assay [10] the test system is Rattus norvegicus. In words: Antiallergic activity evaluated as percent inhibition at peroral dose of 100 mg/kg in rats. Particulars: route oral.

As a reminder, the inhibition in vivo is the drop in the measured response relative to a control, in per cent. For the molecule `CCOC(=O)C1=C(NC2CC2c2ccc(Cl)cc2)OCC1=O` (stereo unspecified), the inhibition in vivo at 100 mg/kg in the assay on Rattus norvegicus [1] was 60%; in the assay on Rattus norvegicus [2] it was 51%; in the assay with Rattus norvegicus [3], 76%.
As to `O=C(O)C1=C(Nc2cccc3ccccc23)OCC1=O`, the Activity in the assay with Rattus norvegicus [4] came to 1.2. The inhibition in vivo at 100 mg/kg with Rattus norvegicus [5] was determined as 64%.
With `O=C(O)C1=C(Nc2cccc([N+](=O)[O-])c2)OCC1=O`, the Activity in the assay with Rattus norvegicus [4] amounted to 7.29. The inhibition in vivo at 100 mg/kg in the assay with Rattus norvegicus [5] is 39%; with Rattus norvegicus [1], 16%; with Rattus norvegicus [2] it was 18%; in the assay with Rattus norvegicus [3], 48%.
As to `CCOC(=O)C1=C(NC)OCC1=O`, the inhibition in vivo at 100 mg/kg with Rattus norvegicus [1] was 50%; in the assay on Rattus norvegicus [2] it was 38%; in the assay with Rattus norvegicus [3] it was 25%.
In turn, `O=C([O-])C1=C(NC2CC2c2ccccc2)OCC1=O.[Na+]` (stereo unspecified) registered an Activity in the assay with Rattus norvegicus [4] of 3.72. Also, the inhibition in vivo at 100 mg/kg in the assay with Rattus norvegicus [5] worked out at 22%.
`O=C(O)C1=C(Nc2ccc(Br)cc2)OCC1=O` returned an Activity in the assay on Rattus norvegicus [4] of 3.24. Also, the inhibition in vivo at 100 mg/kg with Rattus norvegicus [5] worked out at 27%; with Rattus norvegicus [6], 45%; with Rattus norvegicus [7], 39%; in the assay on Rattus norvegicus [8], 68%.
As usually defined, the Inhibition is the drop in the measured response relative to a control, in per cent. In the assay on Rattus norvegicus [4], `O=C([O-])C1=C(Nc2ccccc2)OCC1=O.[Na+]` registered an Activity of 2.75. The Inhibition in the assay with Rattus norvegicus [5] turned out to be 17%.
Taken in the same sequence, the figures for `O=C(O)C1=C(Nc2ccccc2)OCC1=O` were 0.47 and 81%.
Molecule `CC1OC(Nc2ccccc2)=C(C(=O)O)C1=O` (stereo unspecified) registered an Activity in the assay with Rattus norvegicus [4] of 2. The inhibition in vivo at 100 mg/kg in the assay with Rattus norvegicus [5] was 60%.
In the case of `COc1ccccc1NC(=O)C1=C(Nc2ccccc2OC)OCC1=O`, the inhibition in vivo at 100 mg/kg in the assay with Rattus norvegicus [1] was 1%; in the assay on Rattus norvegicus [2] it was 18%; with Rattus norvegicus [3], 39%.
For the molecule `O=C(O)C1=C(NC2CC2c2ccc(Cl)cc2)OCC1=O` (stereo unspecified), the Activity in the assay on Rattus norvegicus [4] is recorded as 4.1. For the same molecule, the inhibition in vivo at 100 mg/kg in the assay with Rattus norvegicus [5] stood at 6%; in the assay on Rattus norvegicus [1], 56%; in the assay on Rattus norvegicus [2], 54%; in the assay on Rattus norvegicus [3], 71%.
`O=C1COC(Nc2ccccc2)=C1C(=O)Nc1ccccc1` registered an Activity in the assay with Rattus norvegicus [4] of 2.45. The molecule also registered an inhibition in vivo at 100 mg/kg with Rattus norvegicus [5] of 46%.
Consider `CC1(C)OC(Nc2ccccc2)=C(C(=O)O)C1=O`, for which, in the assay with Rattus norvegicus [4], the Activity was found to be 1.95. This molecule also displayed an inhibition in vivo at 100 mg/kg in the assay with Rattus norvegicus [5] of 44%.
For `CCOC(=O)C1=C(Nc2cccc(C(F)(F)F)c2)OCC1=O`, the inhibition in vivo at 100 mg/kg came out at 4.1% with Rattus norvegicus [6], 9.7% in the assay with Rattus norvegicus [7] and 40% in the assay on Rattus norvegicus [8].
For the molecule `Cc1ccc(C2CC2NC2=C(C(=O)O)C(=O)CO2)cc1` (stereo unspecified), in the assay on Rattus norvegicus [4], the Activity worked out at 1.58. In addition, the inhibition in vivo at 100 mg/kg in the assay on Rattus norvegicus [5] came out at 45%; in the assay with Rattus norvegicus [1], 100%; in the assay on Rattus norvegicus [2] it was 100%; in the assay on Rattus norvegicus [3], 100%.
For the molecule `CCOC(=O)C1=C(NC2CC2c2ccccc2)OCC1=O` (stereo unspecified), the inhibition in vivo at 100 mg/kg came out at 35% in the assay on Rattus norvegicus [6], 57% in the assay with Rattus norvegicus [7] and 59% in the assay with Rattus norvegicus [8].
The corresponding values for `CCOC(=O)C1=C(Nc2ccc(Cl)cc2)OCC1=O` are 3.3%, 6.6% and 9.5%.
`O=C(O)C1=C(Nc2ccc(C(=O)O)cc2)OCC1=O` showed an Activity with Rattus norvegicus [4] of 2. In addition, the inhibition in vivo at 100 mg/kg came to 52% in the assay with Rattus norvegicus [5], 64% in the assay on Rattus norvegicus [1], 63% with Rattus norvegicus [2] and 64% in the assay on Rattus norvegicus [3].
`O=C(O)C1=C(Nc2cccc(C(F)(F)F)c2)OCC1=O` came in with an Activity in the assay with Rattus norvegicus [4] of 3.35. Further, the inhibition in vivo at 100 mg/kg with Rattus norvegicus [5] is 45%; with Rattus norvegicus [6] it was 26%; in the assay with Rattus norvegicus [7], 40%; in the assay with Rattus norvegicus [8], 54%.
`CCOC(=O)C1=C(Nc2ccccc2)OC(C)(C)C1=O`: the Activity in the assay on Rattus norvegicus [4] was 7.71. In the assay with Rattus norvegicus [5], this molecule showed an inhibition in vivo at 100 mg/kg of 16%.
With `CCOC(=O)C1=C(Nc2ccc(C(=O)OCC)cc2)OCC1=O`, the inhibition in vivo at 100 mg/kg amounted to 21% in the assay with Rattus norvegicus [6], 18% with Rattus norvegicus [7] and 21% in the assay on Rattus norvegicus [8].
With `Cc1ccccc1NC(=O)C1=C(Nc2ccccc2C)OCC1=O`, the inhibition in vivo at 100 mg/kg in the assay with Rattus norvegicus [1] came to 0%; in the assay with Rattus norvegicus [2], 9%; in the assay on Rattus norvegicus [3], 7%.
With `COc1ccccc1NC1=C(C(=O)O)C(=O)CO1`, the Activity in the assay on Rattus norvegicus [4] was 3.45. For the same molecule, the inhibition in vivo at 100 mg/kg in the assay on Rattus norvegicus [5] came to 45%; in the assay with Rattus norvegicus [6], 27%; in the assay with Rattus norvegicus [7], 30%; in the assay on Rattus norvegicus [8], 38%.
In turn, `CCOC(=O)C1=C(Nc2ccccc2)OC(C)C1=O` (stereo unspecified) yielded an Activity in the assay with Rattus norvegicus [4] of 1.44. The inhibition in vivo at 100 mg/kg in the assay on Rattus norvegicus [5] stood at 61%; in the assay with Rattus norvegicus [1] it was 40%; in the assay with Rattus norvegicus [2], 37%; with Rattus norvegicus [3], 46%.
As to `O=C1COC(Nc2ccc(Cl)cc2)=C1C(=O)Nc1ccc(Cl)cc1`, the inhibition in vivo at 100 mg/kg was 15% in the assay on Rattus norvegicus [1], 14% in the assay on Rattus norvegicus [2] and 44% in the assay with Rattus norvegicus [3].
Regarding `COc1ccc(NC(=O)C2=C(Nc3ccc(OC)cc3)OCC2=O)cc1`, the inhibition in vivo at 100 mg/kg stood at 8% in the assay with Rattus norvegicus [1], 13% with Rattus norvegicus [2] and 39% in the assay on Rattus norvegicus [3].
The corresponding values for `CN1CCC(=C2c3ccccc3C=Cc3ccccc32)CC1` [CYPROHEPTADINE HYDROCHLORIDE] are 93%, 93% and 23%.
In the assay on Rattus norvegicus [9], `Cn1c(=O)c2nc[nH]c2n(C)c1=O.O` [THEOPHYLLINE] had an Activity of 3.75. The molecule further had an inhibition in vivo at 100 mg/kg in the assay on Rattus norvegicus [10] of 66%.
